Measurements published in patent US20040157818A1, “Cxcr4-antagonistic drugs composed of nitrogen-containing compound” (priority 2001, published 2004).

target: T1, CXCR4 (Homo sapiens, UniProt P61073); assay: CXCR4-binding inhibition activity (125I-SDF-1α binding to MT-4 cells); conditions: 0.1 μM test material, ligand 125I-SDF-1α, 2 hours under ice cold condition
T1 construct: endogenous in cells; host or cells: MT-4 cells
Protocol: CXCR4-Binding Inhibition Activity
MT-4 cells (5×10^6/0.2 ml/well) were cultured on a 24-well microtiter plate. After the cells were incubated for 24 hours at 37° C. in a carbon dioxide gas incubator, a culture mediumwas replaced with a buffer solution (RPMI-1640 containing 0.1% BSA). Together with a ligand ^125I-SDF-1α (specific activity: 2,2000 Ci/mmol; DAIICHI PURE CHEMICALS CO. ,LTD. (Tokyo)), various concentrations of test materials were subjected to a binding reaction for 2 hours under ice cold condition.

T1 sequence (P61073 whole entry): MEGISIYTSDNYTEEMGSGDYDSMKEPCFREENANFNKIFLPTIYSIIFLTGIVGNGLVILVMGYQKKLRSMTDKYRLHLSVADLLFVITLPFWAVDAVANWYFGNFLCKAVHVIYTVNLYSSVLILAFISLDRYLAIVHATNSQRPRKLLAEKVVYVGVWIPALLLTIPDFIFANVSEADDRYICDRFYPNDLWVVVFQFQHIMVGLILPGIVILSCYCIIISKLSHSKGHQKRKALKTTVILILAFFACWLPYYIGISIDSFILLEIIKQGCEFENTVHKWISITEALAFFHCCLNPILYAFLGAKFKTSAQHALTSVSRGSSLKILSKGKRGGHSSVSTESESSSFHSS

Structure (SMILES)	inhibition rate (binding-inhibition % at 0.1 μM) [%]
Cn1cccc1CNCCC[C@H](NC(=O)c1ccc(CNCc2ccccn2)cc1)C(=O)NCc1cccc2ccccc12 [Compound No. 5, (S)-2-(4-(N-2-picolylaminomethyl)benzoylamino)-5-((1-methylpyrrol-2-ylmethyl)amino)valerate 1-naphthalenemethylamide]	26.4
O=C(N[C@@H](CCCNC1CCCc2cccnc21)C(=O)NCc1cccc2ccccc12)c1ccc(CNCc2ncc[nH]2)s1 (some centres unmarked) [Compound No. 16]	75.3
O=C(N[C@@H](CCCNC1CCCc2cccnc21)C(=O)NCCc1c[nH]c2ccccc12)c1ccc(CNCc2ncc[nH]2)c2ccccc12 (stereo partly drawn) [Compound No. 19, (2S)-2-(4-((N-imidazol-2-ylmethyl)aminomethyl)naphthoylamino)-5-(5,6,7,8-tetrahydroquinolin-8-ylamino)2-(3-indolyl)ethylamide valerate]	73.8
O=C(N[C@@H](CCCNCc1ncc[nH]1)C(=O)NCc1cccc2ccccc12)c1ccc(CNCc2ncc[nH]2)cc1 [Compound No. 21, (S)-2-(4-((imidazol-2-ylmethyl)aminomethyl)benzoylamino)-5-((imidazol-2-ylmethyl)amino)valerate 1-naphthalenemethylamide]	12.8
O=C(N[C@@H](CCCNC1CCCc2cccnc21)C(=O)NCc1cccc2ccccc12)c1ccc(CNC2CCCc3cccnc32)c2ccccc12 (stereo partly drawn) [Compound No. 26, (2S)-2-(4-(5,6,7,8-tetrahydroquinolin-8-ylaminomethyl)naphthoyl)amino-5-(5,6,7,8-tetrahydroquinolin-8-ylamino)valerate 1-naphthalenemethylamide]	78.6
O=C(N[C@@H](CCCNCc1ccccn1)C(=O)NCc1cccc2ccccc12)c1ccc(CNCc2ccccn2)c2ccccc12 [Compound No. 27, (S)-2-(4-(N-2-picolylaminomethyl)naphthoylamino)-5-(2-picolylamino)valerate 1-naphthalenemethylamide]	82.1
O=C(N[C@@H](CCCNCc1ncc[nH]1)C(=O)NCc1cccc2ccccc12)c1ccc(CNCc2ncc[nH]2)c2ccccc12 [Compound No. 28, (S)-2-(4-((imidazol-2-ylmethyl)aminomethyl)naphthoylamino)-5-((imidazol-2-ylmethyl)amino)valerate 1-naphthalenemethylamide]	78.1
Cn1ccnc1CNCCC[C@H](NC(=O)c1ccc(CNCc2nccn2C)c2ccccc12)C(=O)NCc1cccc2ccccc12 [Compound No. 29, (S)-2-(4-((1-methylimidazol-2-ylmethyl)aminomethyl)naphthoylamino)-5-((1-methylimidazol-2-ylmethyl)amino)valerate 1-naphthalenemethylamide]	56.8
Cn1cccc1CNCCC[C@H](NC(=O)c1ccc(CNCc2nccn2C)cc1)C(=O)NCc1cccc2ccccc12 [Compound No. 30, (S)-2-(4-((1-methylimidazol-2-ylmethyl)aminomethyl)benzoylamino)-5-((1-methylpyrrol-2-ylmethyl)amino)valerate 1-naphthalenemethylamide]	60.9
O=C(N[C@@H](CCCNC1CCCc2cccnc21)C(=O)NCc1cccc2ccccc12)c1ccc(CNCc2ccccn2)c2ccccc12 (stereo partly drawn) [Compound No. 38, (2S)-2-(4-(N-2-picolylaminomethyl)naphthoylamino)-5-(5,6,7,8-tetrahydroquinolin-8-ylamino)valerate 1-naphthalenemethylamide]	90.0
O=C(N[C@@H](CCCNCc1ccccn1)C(=O)NCc1cccc2ccccc12)c1ccc(CNCc2ncc[nH]2)c2ccccc12 [Compound No. 40, (S)-2-(4-((N-imidazol-2-ylmethyl)aminomethyl)naphthoylamino)-5-(2-picolylamino)valerate 1-naphthalenemethylamide]	85.3
NC(N)=NCCC[C@H](NC(=O)c1ccc(CNCc2ccccn2)cc1)C(=O)NCc1cccc2ccccc12 [Compound No. 43, N^α-(4-(N-2-picolylaminomethyl)benzoyl)-L-arginine 1-naphthalenemethylamide]	43.6
N=C(N)NCCC[C@H](NC(=O)c1ccc(CNCc2ccccn2)c2ccccc12)C(=O)NCc1cccc2ccccc12 [Compound No. 44, N^α-(4-(N-2-picolylaminomethyl)naphthoyl)-L-arginine 1-naphthalenemethylamide]	88.1
N=C(N)NCCC[C@H](NC(=O)c1ccc(CNCc2ncc[nH]2)c2ccccc12)C(=O)NCc1cccc2ccccc12 [Compound No. 45, N^α-(4-((N-imidazol-2-ylmethyl)aminomethyl)naphthoyl)-L-arginine 1-naphthalenemethylamide]	95.8
N=C(N)NCCC[C@H](NC(=O)c1ccc(CNCc2ncc[nH]2)cc1)C(=O)NCc1cccc2ccccc12 [Compound No. 53, N^α-(4-((imidazol-2-ylmethyl)aminomethyl)benzoyl)-L-arginine 1-naphthalenemethylamide]	71.5
O=C(N[C@@H](CCCN[C@@H]1CCCc2cccnc21)C(=O)NCc1cccc2ccccc12)c1ccc(CNCc2ccccn2)c2ccccc12 [Compound No. 55, (2S)-2-(4-(N-2-picolylaminomethyl)naphthoylamino)-5-((8R)-5,6,7,8-tetrahydroquinolin-8-ylamino)valerate 1-naphthalenemethylamide]	94.6
C[C@H](NC(=O)[C@H](CCCNCc1ccccn1)NC(=O)c1ccc(CNCc2ncc[nH]2)c2ccccc12)c1cccc2ccccc12 [Compound No. 56]	69.9
C[C@@H](NC(=O)[C@H](CCCNCc1ccccn1)NC(=O)c1ccc(CNCc2ncc[nH]2)c2ccccc12)c1cccc2ccccc12 [Compound No. 58]	52.0
C[C@@H](NC(=O)[C@H](CCCNC1CCCc2cccnc21)NC(=O)c1ccc(CNCc2ncc[nH]2)c2ccccc12)c1cccc2ccccc12 (some centres unmarked) [Compound No. 59]	86.0
O=C(N[C@@H](CCCNCc1ccccn1)C(=O)NCc1cccc2ccccc12)c1ccc(CNCc2ccccn2)cc1 [Compound No. 60, (S)-2-(4-(N-2-picolylaminomethyl)benzoylamino)-5-(N-2-picolylamino)valerate 1-naphthalenemethylamide]	16.8
O=C(N[C@@H](CCNCc1ccccn1)C(=O)NCc1cccc2ccccc12)c1ccc(CNCc2ccccn2)cc1 [Compound No. 61, (S)-2-(4-(N-2-picolylamino)methylbenzoylamino)-4-(N-2-picolylamino)lactate 1-naphthalenemethylamide]	32.9
O=C(N[C@@H](CCCNC1CCCc2cccnc21)C(=O)NCc1cccc2ccccc12)c1ccc(CNC2CCCc3cccnc32)cc1 (stereo partly drawn) [Compound No. 64, (2S)-2-(4-((5,6,7,8-tetrahydroquinolin-8-yl)aminomethyl)benzoylamino)-5-((5,6,7,8-tetrahydroquinolin-8-yl)amino)valerate 1-naphthalenemethylamide]	51.6
C[C@H](NC(=O)[C@H](CCCNC1CCCc2cccnc21)NC(=O)c1ccc(CNCc2ccccn2)nc1)c1cccc2ccccc12 (stereo partly drawn) [Compound No. 83, (2S)-2-(2-(N-2-picolylaminomethyl)pyridin-5-ylcarbonyl)amino-5-(5,6,7,8-tetrahydroquinolin-8-yl)amino valerate(1′S)-1′-(1-naphthyl)ethylamide]	78.0
C[C@H](NC(=O)[C@H](CCCNC1CCCc2cccnc21)NC(=O)c1ccc(CNCc2ccccn2)c2ccccc12)c1cccc2ccccc12 (stereo partly drawn) [Compound No. 85, (2S)-2-(4-(N-2-picolylaminomethyl)naphthoyl)amino-5-(5,6,7,8-tetrahydroquinolin-8-yl)amino valerate(1′S)-1′-(1-naphthyl)-ethylamide]	90.7
C[C@H](NC(=O)[C@H](CCCNCc1nccn1C)NC(=O)c1ccc(CNCc2nccn2C)c2ccccc12)c1cccc2ccccc12 [Compound No. 87]	57.9
C[C@H](NC(=O)[C@H](CCCNC1CCCc2cccnc21)NC(=O)c1ccc(CNCc2ccccn2)cc1)c1cccc2ccccc12 (stereo partly drawn) [Compound No. 91, (2S)-2-(4-(N-2-picolylaminomethyl)benzoyl)amino-5-(5,6,7,8-tetrahydroquinolin-8-yl)amino valerate(1′S)-1′-(1-naphthyl)ethylamide]	94.0
C[C@H](NC(=O)[C@H](CCCNC(=N)N)NC(=O)c1ccc(CNCc2ncc[nH]2)cc1)c1cccc2ccccc12 [Compound No. 95]	100.0
O=C(N[C@@H](CCCNC1CCCc2cccnc21)C(=O)NCc1cccc2ccccc12)c1ccc(CNc2ccccn2)c2ccccc12 (stereo partly drawn) [Compound No. 104, (2S)-2-(4-(2-pyridyl)aminomethylnaphthalene-1-carbonyl)anmino-5-(5,6,7,8-tetrahydroquinolin-8-yl)amino valerate 1-naphthylmethylamide]	40.6

same assay, conditions: 0.1 μM test material, ligand 125I-SDF-1α, 2 hours under ice cold condition, read-out: inhibition rate (binding-inhibition % at 0.1 μM)

Structure (SMILES)	inhibition at 0.1 µM [%]
c1cc(CN2CCCNCCNCCCNCC2)ccc1CN1CCCNCCNCCCNCC1 [AMD3100, reference compound]	10
